Source: US20220204540A1, “ESTERS OF NON- AROMATIC HETEROCYCLIC COMPOUNDS HAVING A NEMATOCIDAL ACTIVITY, THEIR AGRONOMIC COMPOSITIONS AND USE THEREOF” (ISAGRO S.p.A., priority 2019, published 2022)

System: Meloidogyne sp.
Test: Nematocidal activity against Meloidogyne sp. on potted cucumber/tomato plants in greenhouse (soil treatment)
Assay type: in vivo
Details: for GALL INDEX (scale 0-10) / FRESH WEIGHT OF PLANT: cucumber cv Chinese Long; for GALL INDEX (scale 0-10): dose applied 2 kg/hectare (2000 g/hectare), survey 30 days after transplantation, Bridge-Page scale, 0 = 0% of root affected, 10 = 100% infested root; for FRESH WEIGHT OF PLANT: dose applied 2 kg/hectare, healthy blank 23 g, infested blank 3.5 g; for FRESH WEIGHT OF PLANT / effectiveness with respect to the reference products (CR1, CR2), in words: 30 days after transplantation; for effectiveness with respect to the reference products (CR1, CR2), in words: Table 6, cucumber, 2 kg/hectare
Protocol: sDetermination of the Nematocidal Activity Against Meloidogyne sp.
The tests aimed at testing the nematicidal activity of the product under examination were carried out using inoculae taken from a farming of Meloidogyne sp. maintained on potted tomato and cucumber plants and grown in greenhouses.
To carry out the experiments, portions of roots having a good number of galls and soil were taken from the infested pots, in which larvae were present starting from the second stage of age.
New pots having a diameter of 15 cm were half filled with sterile soil. The portions of infested roots, previously cleaned, were placed on the same in order to be able to correctly assess the degree of infestation and ensure that each pot contains the same nematic charge. 200-300 g of infested soil were subsequently added, then covered with a thin layer of sterile soil.
The treatment was carried out by pouring 100 ml of solution on the surface of the soil, in which the product to be tested was dissolved.
Tomato or cucumber seedlings at the stage of two or three true leaves were transplanted in the pots thus prepared, one or seven days after application. Different cultivars of tomato or cucumber were used, having a different sensitivity to the parasite and different growth times. In particular, a variety of ornamental tomatoes (cv Microtom), whose seedlings are small in size and are able to reach the ripeness of the fruit in pots and under greenhouse conditions in about two months, was used for assessing the final production.
The containment capacity of the parasite was detected, 30 and 60 days after transplantation, considering the development of the root system (where 100% is the development reached by the healthy comparative root), the fresh weight of the plants treated expressed in grams, and the presence of galls on the roots. The latter was estimated using the infestation scale proposed by Bridge-Page, according to which the value zero corresponds to 0% of the root affected and the value 10 corresponds to 100% of infested root.
Table 6 indicates the results relating to the effectiveness on cucumbers, cv Chinese Long, treating with Compounds Nr. 23, 620, 1, 13, 5, 15, 16, 624 and 625 included in general formula (I) and the reference compounds CR1=Fluensulfone and CR2, described in JP 2000038379, instead of the compound having general formula (I), at a dose of 2000 g/hectare and effecting the survey 30 days after transplantation.

Compound	GALL INDEX (scale 0-10)	FRESH WEIGHT OF PLANT	effectiveness with respect to the reference products (CR1, CR2), in words
O=S(=O)(CCC(F)=C(F)F)c1ncc(Cl)s1 [CR1, 5-chloro-2-(3,4,4-trifluoro-3-butenylsulfonyl)-thiazole, reference compound]	2	5.5 g	–
O=C(OCCC(F)=C(F)F)c1cccnc1 [CR2, pyridyl-3-carboxylate of 3,4,4-trifluoro-3-butenyl, reference compound]	2.9	17.5 g	–
CC(=O)N1C(C(=O)OCCC(F)=C(F)F)COC1(C)C(F)(F)F (stereo not shown) [Compound 16, (N-acetyl-2-trifluoromethyl-2-methyl)-1,3-oxazolidine-4-carboxylate of 3,4,4-trifluoro-3-butenyl]	2.9	18 g	comparable or greater effectiveness
CC(=O)N1CCC[C@H]1C(=O)OCCC(F)=C(F)F [Compound 624, N-acetyl-L-proline 3,4,4-trifluorobut-3-en-1-yl ester]	1.5	21 g	comparable or greater effectiveness
O=C(OCCC(F)=C(F)F)[C@@H]1CCCN1C(=O)C(F)(F)F [Compound 625, N-trifluoroacetyl-L-proline 3,4,4-triflluorobut-3-en-1-yl ester]	2.5	22 g	comparable or greater effectiveness
N-acetyl-1,3-thiadiazolidine-4-carboxylate of 3,4,4-trifluoro-3-butenyl [Compound 23]	2	23 g	comparable or greater effectiveness
